Results as given in PMC8551311, “Energy transfer between the nicotinamide nucleotide transhydrogenase and ATP synthase of Escherichia coli” (Scientific Reports, 2021).

Experiments:
[1] = target: T1, E. coli F1F0 ATP synthase (Escherichia coli, UniProt P0ABB0+P0ABB4); assay: ATP synthesis in proteoliposomes, luciferin/luciferase luminescence; assay type: biochemical; parameters: gene atpA; with ATP synthase gamma chain; ATP synthase subunit delta; ATP synthase epsilon chain; ATP synthase subunit a; ATP synthase subunit b; ATP synthase subunit c; details: 250 μM ADP, 40 mM KH2PO4, 5 mM MgCl2, 1.5 mM NAD+, 750 μM NADPH; 50 mM HEPES pH 7.5, 100 mM KCl; co-reconstituted with transhydrogenase
[2] = target: T1, E. coli F1F0 ATP synthase; parameters: gene atpA; details: 250 μM ATP, 2-4 mM MgCl2; 50 mM HEPES pH 7.5, 100 mM KCl; co-reconstituted with transhydrogenase

| SMILES | ATP synthesis in proteoliposomes, luciferin/luciferase luminescence [1] | ATP-driven proton pumping in proteoliposomes (ACMA quench); APADH absorbance 375 [2] |
| --- | --- | --- |
| Nc1ncnc2c1ncn2[C@@H]1O[C@H](COP(=O)(O)OP(=O)(O)O)[C@@H](O)[C@H]1O [ADP] | upon addition of NADPH, continuous ATP synthesis is observed | – |
| Nc1ncnc2c1ncn2[C@@H]1O[C@H](COP(=O)(O)OP(=O)(O)OP(=O)(O)O)[C@@H](O)[C@H]1O [ATP] | – | addition of ATP energized inward proton pumping by ATP synthase |
